PubChem BioAssay (NCI)
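Values below derive from 48-hour exposures of cells grown in 96-well plates, with endpoints linearly interpolated between the two concentrations bracketing the appropriate inhibition level. TGI denotes the concentration required for complete inhibition of growth.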

How the values were obtained:
Test in all cases: growth of human tumour cells (NCI), 48 h
M14 melanoma = tested on: M14 melanoma
MALME-3M melanoma = tested on: MALME-3M melanoma
EKVX NSCLC = tested on: EKVX NSCLC
NCI-H522 lung = tested on: NCI-H522 lung
SNB-75 CNS = tested on: SNB-75 CNS
ACHN renal = tested on: ACHN renal
MDA-MB-435 = tested on: MDA-MB-435
HT29 colon = tested on: HT29 colon
DU-145 prostate = tested on: DU-145 prostate
UACC-62 melanoma = tested on: UACC-62 melanoma
SF-268 CNS = tested on: SF-268 CNS
T-47D breast = tested on: T-47D breast
NCI-H226 lung = tested on: NCI-H226 lung
CAKI-1 renal = tested on: CAKI-1 renal
HS 578T breast = tested on: HS 578T breast
CCRF-CEM leukemia = tested on: CCRF-CEM leukemia
SNB-19 CNS = tested on: SNB-19 CNS
OVCAR-5 ovarian = tested on: OVCAR-5 ovarian
KM12 colon = tested on: KM12 colon
SF-539 CNS = tested on: SF-539 CNS
UACC-257 melanoma = tested on: UACC-257 melanoma
OVCAR-8 ovarian = tested on: OVCAR-8 ovarian
MDA-MB-231 breast = tested on: MDA-MB-231 breast
U251 CNS = tested on: U251 CNS
HCT-116 colon = tested on: HCT-116 colon
UO-31 renal = tested on: UO-31 renal
IGROV1 ovarian = tested on: IGROV1 ovarian
OVCAR-3 ovarian = tested on: OVCAR-3 ovarian
HOP-62 NSCLC = tested on: HOP-62 NSCLC
HCC-2998 colon = tested on: HCC-2998 colon
MCF7 breast = tested on: MCF7 breast
RPMI-8226 leukemia = tested on: RPMI-8226 leukemia
NCI/ADR-RES ovarian = tested on: NCI/ADR-RES ovarian
TK-10 renal = tested on: TK-10 renal
SR leukemia = tested on: SR leukemia
A498 renal = tested on: A498 renal
HL-60(TB) leukemia = tested on: HL-60(TB) leukemia
786-0 renal = tested on: 786-0 renal
A549 NSCLC = tested on: A549 NSCLC
PC-3 prostate = tested on: PC-3 prostate
SK-MEL-2 melanoma = tested on: SK-MEL-2 melanoma
K-562 leukemia = tested on: K-562 leukemia
SK-MEL-28 melanoma = tested on: SK-MEL-28 melanoma
MOLT-4 leukemia = tested on: MOLT-4 leukemia
SK-OV-3 ovarian = tested on: SK-OV-3 ovarian
SW-620 colon = tested on: SW-620 colon
LOX IMVI melanoma = tested on: LOX IMVI melanoma
MDA-N = tested on: MDA-N
NCI-H23 lung = tested on: NCI-H23 lung
SN12C renal = tested on: SN12C renal
OVCAR-4 ovarian = tested on: OVCAR-4 ovarian
NCI-H460 lung = tested on: NCI-H460 lung
SF-295 CNS = tested on: SF-295 CNS
RXF 393 renal = tested on: RXF 393 renal
SK-MEL-5 melanoma = tested on: SK-MEL-5 melanoma
COLO 205 colon = tested on: COLO 205 colon
HOP-92 NSCLC = tested on: HOP-92 NSCLC
HCT-15 colon = tested on: HCT-15 colon

`O=C(NCCOC(=O)OCCNC(=O)NC1CCCCC1)NC1CCCCC1` showed a TGI (M14 melanoma) of over 100 µM, a TGI (MALME-3M melanoma) of over 100 µM and a TGI (EKVX NSCLC) of over 100 µM. The TGI (NCI-H522 lung) was over 100 µM, the TGI (SNB-75 CNS) was over 100 µM and the TGI (ACHN renal) was over 100 µM. It also gave a TGI (MDA-MB-435) of over 100 µM, a TGI (HT29 colon) of over 100 µM and a TGI (DU-145 prostate) of over 100 µM. It also gave a TGI (UACC-62 melanoma) of over 100 µM, a TGI (SF-268 CNS) of over 100 µM and a TGI (T-47D breast) of over 100 µM. The TGI (NCI-H226 lung) was over 100 µM, the TGI (CAKI-1 renal) was over 100 µM and the TGI (HS 578T breast) was over 100 µM. It also gave a TGI (CCRF-CEM leukemia) of over 100 µM, a TGI (SNB-19 CNS) of over 100 µM and a TGI (OVCAR-5 ovarian) of over 100 µM. It also gave a TGI (KM12 colon) of over 100 µM, a TGI (SF-539 CNS) of over 100 µM and a TGI (UACC-257 melanoma) of over 100 µM. The TGI (OVCAR-8 ovarian) was over 100 µM, the TGI (MDA-MB-231 breast) was over 100 µM and the TGI (U251 CNS) was over 100 µM. The TGI (HCT-116 colon) was over 100 µM, the TGI (UO-31 renal) was over 100 µM and the TGI (IGROV1 ovarian) was over 100 µM. It also gave a TGI (OVCAR-3 ovarian) of over 100 µM, a TGI (HOP-62 NSCLC) of over 100 µM and a TGI (HCC-2998 colon) of over 100 µM. The TGI (MCF7 breast) was over 100 µM, the TGI (RPMI-8226 leukemia) was over 100 µM and the TGI (NCI/ADR-RES ovarian) was over 100 µM. For the same compound, the TGI (TK-10 renal) was over 100 µM, the TGI (SR leukemia) was over 100 µM and the TGI (A498 renal) was over 100 µM. The TGI (HL-60(TB) leukemia) was over 100 µM, the TGI (786-0 renal) was over 100 µM and the TGI (A549 NSCLC) was over 100 µM. For the same compound, the TGI (PC-3 prostate) was over 100 µM, the TGI (SK-MEL-2 melanoma) was over 100 µM and the TGI (K-562 leukemia) was over 100 µM. The TGI (SK-MEL-28 melanoma) was over 100 µM, the TGI (MOLT-4 leukemia) was over 100 µM and the TGI (SK-OV-3 ovarian) was over 100 µM. It also gave a TGI (SW-620 colon) of over 100 µM, a TGI (LOX IMVI melanoma) of over 100 µM and a TGI (MDA-N) of over 100 µM. For the same compound, the TGI (NCI-H23 lung) was over 100 µM, the TGI (SN12C renal) was over 100 µM and the TGI (OVCAR-4 ovarian) was over 100 µM. It also gave a TGI (NCI-H460 lung) of over 100 µM, a TGI (SF-295 CNS) of over 100 µM and a TGI (RXF 393 renal) of over 100 µM. The TGI (SK-MEL-5 melanoma) was over 100 µM, the TGI (COLO 205 colon) was over 100 µM and the TGI (HOP-92 NSCLC) was 79 µM. For the same compound, the TGI (HCT-15 colon) was over 100 µM.
